Assay results: patent US20060189539A1, “Novel GnRH analogues with antitumour effects and pharmaceutical compositions thereof” (priority 1994, published 2006)

Assays:
[1] = system: MDA-MB-231 human mammary carcinoma cell line; test: Inhibition of colony formation (dose-survival), Example 48; format: cell-based
Excerpt: (§1) MCF-7 human mammary carcinoma cell line was stabilized in 1973 by Soule et al. from the pleural fluid of a patient suffering from mammary carcinoma. MDA-MB-231 human mammary carcinoma cell line was isolated and stabilized by Cailleau et al. in 1974 similarly from pleural fluid. Both cell lines grow in monolayer. MCF-7 and MDA-MB-231 human mammary carcinoma cell lines are maintained in plastic flasks (Greiner), in Dulbecco-modified Eagle-MEM (DMEM, GIBCO) liquid nutrient medium containing 10% of fetal calf serum. MCF-7 cell line is estradiol receptor (ER)-positive containing proteins specifically binding GnRH. Thus, it represents, a useful model system for investigating the direct effect of GnRH mediated by the GnRH receptor. Being ER-negative and GnRH receptor-positive, MDA-MB-231 cell line is similarly suitable to study the direct effect of GnRH. PC3 human prostate carcinoma cell line was stabilized in cell culture by Kaighn et al. in 1979. The cells are of epithelial type and form compact colonies in clonogenic assays. The Ishikawa cell line originates from human endometrial adenocarcinoma [M. Nishida et al.: Acta Obstet. Gynecol. Jpn. 37, 1103-1111 (1985)], it is epithelial in its character and contains steroid-as well as GnRH receptors.
(§2) The examination gives accurate information about the cell-damaging effect of the substance tested as a function of varying doses. The treatment was carried out once; the colonies formed from the surviving cells were counted after 8-12 days. […] A part of the arrested cells again entered the cycle, an other part of them might be destroyed (apoptosis). […] In the case of a dose-response investigation, colonies containing less than 15 cells were not counted. 300 cells were put into each Petri dishes of 3.5 cm in diameter. The treatment was once carried out 24 hours after setting, then the colonies formed were counted after 8-12 days. The cells were treated once after 24 hours with 1-50 μM of various GnRH analogues of Examples above or with 1-50 μM of GnRH-III, respectively. The percentages of inhibition obtained on MCF-7, MDA-MB-231, PC3 and Ishikawa cells, respectively, together with the dose of the active agent used are shown in Table VIII.

[2] = system: MCF-7 human mammary carcinoma cell line; test: as above; format: cell-based
Excerpt: MCF-7 human mammary carcinoma cell line was stabilized in 1973 by Soule et al. from the pleural fluid of a patient suffering from mammary carcinoma. MDA-MB-231 human mammary carcinoma cell line was isolated and stabilized by Cailleau et al. in 1974 similarly from pleural fluid. Both cell lines grow in monolayer. […] MCF-7 cell line is estradiol receptor (ER)-positive containing proteins specifically binding GnRH. Thus, it represents, a useful model system for investigating the direct effect of GnRH mediated by the GnRH receptor. Being ER-negative and GnRH receptor-positive, MDA-MB-231 cell line is similarly suitable to study the direct effect of GnRH. PC3 human prostate carcinoma cell line was stabilized in cell culture by Kaighn et al. in 1979. The cells are of epithelial type and form compact colonies in clonogenic assays. The Ishikawa cell line originates from human endometrial adenocarcinoma [M. Nishida et al.: Acta Obstet. Gynecol. Jpn. 37, 1103-1111 (1985)], it is epithelial in its character and contains steroid-as well as GnRH receptors. The examination gives accurate information about the cell-damaging effect of the substance tested as a function of varying doses. The treatment was carried out once; the colonies formed from the surviving cells were counted after 8-12 days. […] A part of the arrested cells again entered the cycle, an other part of them might be destroyed (apoptosis). […] The treatment was once carried out 24 hours after setting, then the colonies formed were counted after 8-12 days. The cells were treated once after 24 hours with 1-50 μM of various GnRH analogues of Examples above or with 1-50 μM of GnRH-III, respectively. The percentages of inhibition obtained on MCF-7, MDA-MB-231, PC3 and Ishikawa cells, respectively, together with the dose of the active agent used are shown in Table VIII.

human tumor cell lines = test: Colony formation, Example 48, comparison with control D-Trp6-hGnRH; format: cell-based; conditions: data of Table VIII
Experimental: as §2
In these studies the D-Trp6-hGnRH analogue (Sigma Co.) commonly used in the tumour therapy was employed as control.

[3] = system: Ishikawa endometrium tumour cell culture; test: Inhibition of colony formation (dose-survival), Example 48; format: cell-based, human; conditions: 50 μM
Excerpt: as §1, §2

[4] = system: PC3 prostate tumour cell culture; test: as above; format: cell-based, human; conditions: for % Inhibition of colony formation: 50 μM; for Effect on colony-forming ability: within the dose range used (1-50 μM)
Excerpt: as §1, §2

[5] = system: MCF-7 human mammary carcinoma cell line; test: Inhibition of colony formation (dose-survival), Example 18; format: cell-based; conditions: 50 μM
Excerpt: (§3) Human cell lines used in in vitro experiments. MCF-7 human mammary tumour cell line was stabilized in 1973 by Soule et al. from the pleural fluid of mammary carcinoma patients. The cells grow in monolayer and are epithelial in their character. MDA-MB-231 human mammary carcinoma cell line was isolated and stabilized in 1974 by Cailleau et al. similarly from pleural fluid. These cells also grow in monolayer. PC3 human prostate carcinoma cell line was stabilized 20 in 1979 in cell culture by Kaighn et al.; the cells are of simple epithelium type and form compact colonies in clonogenic assays. Ishikawa cell line originated from adenocarcinoma of human endometrium [Nishida et al.: Obstet. Gynecol. Jpn, 37, 25 1103-1111 (1985)], has epithelial character and contains steroid as well as GnRH receptors. Human tumour cell lines are maintained in plastic flasks (Greiner) in Dulbecco-6modified Eagle-MEM (DMEM GIBCO) nutritive medium. The medium used herein contained 10% of fetal calf serum (FCS).
(§4) In the case of cytostatics the cell-damaging effect is not cell-specific. […] One part of the arrested cells again go into the cycle, the other part may perish (apoptosis). […] The investigations were carried out on MCF-7 and MDA-MB-231 human mammary carcinoma cell lines, PC3 human prostate 15 carcinoma cell line and Ishikawa human endometrium carcinoma cell line. Threehundred cells were set into Petri dishes of 3.5 cm in diameter each. The treatment was carried out once, 24 hours following the explantation, then the colonies formed were counted after 9 to 12 days.

[6] = system: Ishikawa human endometrium carcinoma cell line; test: as above; format: cell-based; conditions: 50 μM
Excerpt: as §3, §4

[7] = system: PC3 human prostate carcinoma cell line; test: as above; format: cell-based; conditions: 50 μM
Excerpt: as §3, §4

Molecule	% Inhibition of colony formation ([1]; 50 μM) [%]	% Inhibition of colony formation ([2]; 50 μM) [%]	Inhibitory effect on colony formation compared with control D-Trp6-hGnRH (human tumor cell lines)	% Inhibition of colony formation [3] [%]	also measured
CC(C)C[C@H](NC(=O)[C@@H](Cc1c[nH]c2ccccc12)NC(=O)[C@H](Cc1ccc(O)cc1)NC(=O)[C@H](CO)NC(=O)[C@H](Cc1c[nH]c2ccccc12)NC(=O)[C@H](Cc1c[nH]cn1)NC(=O)[C@@H]1CCC(=O)N1)C(=O)N[C@@H](CCCNC(=N)N)C(=O)N1CCC[C@H]1C(=O)NCC(N)=O [D-Trp6-hGnRH, pGlu-His-Trp-Ser-Tyr-D-Trp-Leu-Arg-Pro-Gly-NH2, reference compound]	38.7	36.7			% Inhibition of colony formation ([1]; 10 μM): 15.7%; % Inhibition of colony formation ([2]; 10 μM): 17.1%
Ac-D-Trp^1,3,D-Cpa2,{Lys[n-poly(N-vinylpyrrolidone-co-maleic acid)-Ahx]}5,[a-Asp(DEA)]6,D-Ala10-GnRH [P-Ahx-1892]		31			
Glu^6-GnRH-III [Compound 8]	25		exceeded the inhibitory effect of control	2	% Inhibition of colony formation [4]: 31%
H-Glu^1, D-Trp^6-hGnRH [Compound 19]		32.7	approximated the activity of the control		% Inhibition of colony formation ([2]; 10 μM): 16.8%
Lys^5, D-Trp^6-hGnRH [Compound 17]	63	65	twice stronger inhibition	17	% Inhibition of colony formation ([1]; 10 μM): 30%; % Inhibition of colony formation [4]: 18%; Effect on colony-forming ability [4]: weakly inhibited
Lys^5,cyclo[Asp^6-Lys^8]-GnRH-III [Compound 3]		44	exceeded the inhibitory effect of control	13	% Inhibition of colony formation [5]: 44%; % Inhibition of colony formation [6]: 13%
Lys^5-GnRH-III [Compound 2]	0	0			
Phe^7-GnRH-III [Compound 15]	21		weak if any effect		
[Lys(ε-Ac)]^4-GnRH-III [Compound 7]	42	52	exceeded the inhibitory effect of control	14	% Inhibition of colony formation ([1]; 10 μM): 31%; % Inhibition of colony formation [4]: 0%; Effect on colony-forming ability [4]: did not influence
[Lys(ε-Fmoc)]^5-GnRH-III [Compound 1]			weak if any effect		
[Trp(For-Ind)]^3,7-GnRH-III [Compound 14]			approximated the activity of the control	24	
{D-Lys[n-poly(N-vinylpyrrolidone-co-maleic acid)-Gly-Phe-Leu-Gly]}6,-GnRH [P-GFLG-609]					% Inhibition of colony formation ([2]; 10 μM): 40%
{Lys[n-poly(N-vinylpyrrolidone-co-maleic acid)-Gly-Phe-Leu-Gly-]}5,cyclo(Asp6-Lys8)-GnRH-III [P-GFLG-Lys5-cyclo(Asp6,Lys8)-GnRH-III]					% Inhibition of colony formation [7]: 100%; % Inhibition of colony formation [6]: 19%
